Data published in ChEMBL document CHEMBL1128570, “Binding of 5H-dibenzo[a,d]cycloheptene and dibenz[b,f]oxepin analogues of clozapine to dopamine and serotonin receptors” (J Med Chem, 1995).

Legend:
[1] = biological target: D(2) dopamine receptor (Homo sapiens, UniProt P14416); experiment: Ability to inhibit the binding of [3H]spiperone to the Dopamine receptor D2L in COS7 cells; type: cell-based, COS-7
[2] = biological target: T1, D(4) dopamine receptor (Homo sapiens, UniProt P21917); experiment: Ability to inhibit the binding of [3H]spiperone to the Dopamine receptor D4 in COS7 cells; type: cell-based, COS-7
T1 sequence (P21917 whole entry): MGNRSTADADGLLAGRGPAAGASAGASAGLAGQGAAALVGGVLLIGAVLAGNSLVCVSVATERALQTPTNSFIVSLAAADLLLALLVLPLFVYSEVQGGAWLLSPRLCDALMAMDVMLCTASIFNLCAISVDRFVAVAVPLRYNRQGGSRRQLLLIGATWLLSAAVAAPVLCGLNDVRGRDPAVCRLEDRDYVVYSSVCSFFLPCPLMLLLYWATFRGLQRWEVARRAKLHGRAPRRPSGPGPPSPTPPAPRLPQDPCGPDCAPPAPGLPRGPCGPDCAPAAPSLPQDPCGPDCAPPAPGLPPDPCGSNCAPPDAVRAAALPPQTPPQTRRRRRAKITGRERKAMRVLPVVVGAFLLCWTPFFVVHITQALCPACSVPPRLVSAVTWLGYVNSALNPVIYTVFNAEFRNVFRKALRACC

[3] = biological target: T2, 5-hydroxytryptamine receptor 2C (Rattus norvegicus, UniProt P08909); experiment: Ability to inhibit the binding of iodine-125-labelled lysergic acid diethylamide([125I]-LSD) to the S-2C serotonin receptor.
T2 sequence (P08909 whole entry): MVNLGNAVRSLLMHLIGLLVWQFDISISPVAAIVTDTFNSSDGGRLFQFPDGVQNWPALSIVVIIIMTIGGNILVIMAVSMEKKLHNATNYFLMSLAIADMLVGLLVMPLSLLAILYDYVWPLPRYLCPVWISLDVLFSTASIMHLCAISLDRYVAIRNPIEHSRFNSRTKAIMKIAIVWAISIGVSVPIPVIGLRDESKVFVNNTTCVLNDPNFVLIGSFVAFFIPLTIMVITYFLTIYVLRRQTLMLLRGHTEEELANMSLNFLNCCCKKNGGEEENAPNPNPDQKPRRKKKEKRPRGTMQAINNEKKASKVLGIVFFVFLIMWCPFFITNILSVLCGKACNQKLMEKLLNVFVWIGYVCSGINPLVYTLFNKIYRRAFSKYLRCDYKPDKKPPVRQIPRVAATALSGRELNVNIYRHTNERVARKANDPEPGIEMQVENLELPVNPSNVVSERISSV

[4] = biological target: T3, 5-hydroxytryptamine receptor 2A (Rattus norvegicus, UniProt P14842); experiment: Ability to inhibit the binding of iodine-125-labelled lysergic acid diethylamide([125I]-LSD) to the S-2A serotonin receptor.
[5] = Ratio of Ki value towards dopamine D2L receptor to that of serotonin S-2A receptor.
[6] = biological target: T2, 5-hydroxytryptamine receptor 2C; experiment: Ability to inhibit the binding of iodine-125-labelled lysergic acid diethylamide([125I]-LSD) to the S-2C serotonin receptor in NIH3T3 cell line membranes; type: cell-based
[7] = biological target: T3, 5-hydroxytryptamine receptor 2A; experiment: Ability to inhibit the binding of iodine-125-labelled lysergic acid diethylamide([125I]-LSD) to the S-2A serotonin receptor in NIH3T3 cell line membranes; type: cell-based

Chain of D(2) dopamine receptor (P14416 whole entry): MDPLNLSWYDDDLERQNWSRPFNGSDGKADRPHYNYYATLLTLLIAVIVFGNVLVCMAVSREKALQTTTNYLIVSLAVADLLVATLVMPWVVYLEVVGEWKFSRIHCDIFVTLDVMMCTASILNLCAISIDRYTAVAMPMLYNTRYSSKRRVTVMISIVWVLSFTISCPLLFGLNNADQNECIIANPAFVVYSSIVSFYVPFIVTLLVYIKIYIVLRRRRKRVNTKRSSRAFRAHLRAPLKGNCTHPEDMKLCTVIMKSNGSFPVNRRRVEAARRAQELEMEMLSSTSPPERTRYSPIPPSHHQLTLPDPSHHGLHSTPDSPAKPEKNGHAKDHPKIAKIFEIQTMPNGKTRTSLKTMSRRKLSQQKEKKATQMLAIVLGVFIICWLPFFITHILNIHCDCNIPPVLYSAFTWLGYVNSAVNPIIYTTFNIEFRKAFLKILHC
T3 sequence (P14842 whole entry): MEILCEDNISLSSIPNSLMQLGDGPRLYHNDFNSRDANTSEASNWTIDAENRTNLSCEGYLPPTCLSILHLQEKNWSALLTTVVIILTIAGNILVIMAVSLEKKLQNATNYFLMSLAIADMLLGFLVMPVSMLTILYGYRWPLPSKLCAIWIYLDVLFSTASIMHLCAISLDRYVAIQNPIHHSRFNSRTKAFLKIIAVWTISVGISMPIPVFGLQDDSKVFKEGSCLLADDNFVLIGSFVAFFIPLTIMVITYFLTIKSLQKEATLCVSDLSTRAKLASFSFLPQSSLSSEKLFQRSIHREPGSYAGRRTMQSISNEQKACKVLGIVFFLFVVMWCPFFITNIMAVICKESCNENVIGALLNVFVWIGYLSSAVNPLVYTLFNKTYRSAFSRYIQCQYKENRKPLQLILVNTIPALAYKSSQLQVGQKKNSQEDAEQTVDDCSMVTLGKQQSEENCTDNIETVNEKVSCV

Ki [1] | Ki [2] | Ki [3] | Ki [4] | Ratio [5] | Ki [6] | Ki [7] | SMILES
440 nM | 100 nM | 1200 nM | 760 nM | 0.58 |  |  | CC(C)=C1c2ccccc2C=C(C2=CCN(C)CC2)c2cc(Cl)ccc21
44 nM | 28 nM | 7 nM | 4.5 nM | 9.8 |  |  | CCN1CC=C(C2=Cc3ccccc3Cc3ccccc32)CC1
 | 29 nM |  |  |  | 20 nM | 6 nM | CN1CC=C(C2=Cc3ccccc3Oc3ccccc32)CC1
89 nM | 12 nM | 14 nM | 6 nM | 15 |  |  | CN1CC=C(C2=Cc3ccccc3Cc3ccccc32)CC1
 |  |  |  | 0.8 |  |  | CN1CCN(C2=Cc3ccccc3Oc3ccc(Cl)cc32)CC1
82 nM | 9.5 nM |  |  | 30 | 8 nM | 3 nM | CN1CCC(C2=Cc3ccccc3Oc3ccccc32)CC1
 |  |  |  | 0.48 |  |  | CC(C)=C1c2ccccc2C=C(C2=CCN(C)CC2)c2ccccc21
 |  |  |  | 5 |  |  | CN1CCN(C2=Cc3ccccc3Oc3ccccc32)CC1
83 nM | 60 nM | 46 nM | 20 nM | 4.2 |  |  | C=CCN1CC=C(C2=Cc3ccccc3Cc3ccccc32)CC1
 |  |  |  | 9.4 |  |  | CC1c2ccccc2C=C(C2=CCN(C)CC2)c2ccccc21 (configuration not stated)
61 nM | 26 nM |  |  | 10 | 14 nM | 6 nM | CCN1CC=C(C2=Cc3ccccc3Oc3ccccc32)CC1
110 nM | 37 nM |  |  | 5 | 51 nM | 22 nM | C=CCN1CC=C(C2=Cc3ccccc3Oc3ccccc32)CC1
